Experimental data taken from publication PMC6125496 (Antimicrobial Agents and Chemotherapy, 2018).
In brackets after ≈: the same amount, converted by molar mass. Like-named read-outs stand apart in the source and are kept apart here.

Columns and labels:
[1] = tested on: Klebsiella pneumoniae, colistin resistant (46)
Description: (§1) Reference strains are from the German Collection of Microorganisms and Cell Cultures (DSMZ), the American Type Culture Collection (ATCC), the National Collection of Type Cultures (NCTC), and the Medical and Molecular Microbiology, Faculty of Science and Medicine, University of Fribourg, Switzerland.

[2] = tested on: Escherichia coli, colistin-resistant (25)
Description: as §1

[3] = tested on: human renal proximal tubular epithelial cells (HRPTEpiC); test: Multiplexed HRPTEpiC cytotoxicity assay (cell viability, KIM-1, HSP27)
Experimental: The multiplexed cytotoxicity assay on human renal proximal tubule epithelial cells (HRPTEpiC) was conducted by Eurofins Panlabs (Eurofins Panlabs, Inc., St. Charles, MO) by using an image-based high content analysis (HCA) technique where cells were fixed and stained with nuclear dye to visualize nuclei and fluorescently labeled antibodies to detect drug-induced cellular injury and cellular stress arising from oxidative and chemical stress. Cells were seeded into 384-well plates and grown in RPMI 1640, 10% fetal bovine serum (FBS), 2 mM L-alanyl-L-glutamine, and 1 mM sodium pyruvate in a humidified atmosphere of 5% CO2 at 37°C. […] Compounds were serially diluted 3.16-fold and assayed over 10 concentrations in a final assay concentration of 0.5% dimethyl sulfoxide (DMSO) from 100 μM to 3.7 nM. At the same time, a time zero untreated cell plate was generated. After a 48-h incubation period, cells were fixed and stained with fluorescently labeled antibodies and nuclear dyed to allow visualization of nuclei, injured cells, and stressed cells. Injured cells were detected using a KIM-1 (kidney injury molecule 1) antibody. Stressed cells were detected using an anti-HSP27 (heat shock protein 27) antibody. Cell proliferation was measured by the signal intensity of the incorporated nuclear dye. The cell proliferation assay output was referred to as the relative cell count. To determine the cell proliferation endpoint, the cell proliferation data output was transformed to percentage of control (POC) using the following formula: POC = relative cell count in compound wells/relative cell count in vehicle wells × 100. The signal intensity of the incorporated cellular stress and injury measurements were normalized with the relative cell count from each well. Automated fluorescence microscopy was carried out using a Molecular Devices ImageXpress micro-imager, and images were collected with a 4× objective.

[4] = tested on: Citrobacter kozeri DSM 4595; test: microbe, parasite or virus in culture; conditions: Citrobacter, DSM4595
Description: as §1

[5] = tested on: Enterococcus faecium DSM 20477; test: microbe, parasite or virus in culture; conditions: Enterococcus faecium, DSM20477
Description: as §1

[6] = tested on: Klebsiella pneumoniae ATCC BAA-1904; test: microbe, parasite or virus in culture; conditions: Klebsiella pneumoniae, ATCCBAA1904
Description: as §1

[7] = tested on: Klebsiella pneumoniae NCTC 13439; test: microbe, parasite or virus in culture; conditions: Klebsiella pneumoniae, NCTC13439
Description: as §1

[8] = tested on: Gentamicin-resistant K. pneumoniae (16); test: microbe, parasite or virus in culture; conditions: Klebsiella pneumoniae
Description: as §1

[9] = tested on: Enterobacter cloacae DSM 14563; test: microbe, parasite or virus in culture; conditions: Enterobacter cloacae, DSM14563
Description: as §1

[10] = tested on: Acinetobacter baumannii ATCC 19606; test: microbe, parasite or virus in culture; conditions: Acinetobacter baumannii, ATCC19606
Description: as §1

[11] = tested on: Citrobacter freundii DSM 30039; test: microbe, parasite or virus in culture; conditions: Citrobacter freundii, DSM30039
Description: as §1

[12] = tested on: Citrobacter freundii (16); test: microbe, parasite or virus in culture; conditions: Citrobacter freundii
Description: as §1

[13] = tested on: Staphylococcus aureus ATCC 29213; test: microbe, parasite or virus in culture; conditions: Staphylococcus aureus, ATCC29213
Description: as §1

[14] = tested on: Stenotrophomonas maltophilia ATCC 13637; test: microbe, parasite or virus in culture; conditions: Stenotrophomonas maltophilia, ATCC13637
Description: as §1

[15] = tested on: Escherichia coli ATCC 25922; test: microbe, parasite or virus in culture; conditions: Escherichia coli, ATCC25922
Description: as §1

[16] = tested on: Escherichia coli BAA-2469; test: microbe, parasite or virus in culture; conditions: Escherichia coli, BAA2469, Ambler class B carbapenemase; NDM-1
Description: as §1

[17] = tested on: Escherichia coli BAA-2471; test: microbe, parasite or virus in culture; conditions: Escherichia coli, BAA2471
Description: as §1

Escherichia coli (101) = test: microbe, parasite or virus in culture; conditions: Escherichia coli
Description: as §1

[18] = tested on: Streptococcus pneumoniae DSM 2134; test: microbe, parasite or virus in culture; conditions: Streptococcus pneumoniae, DSM2134
Description: as §1

[19] = tested on: Enterobacter aerogenes DSM 30053; test: microbe, parasite or virus in culture; conditions: Klebsiella aerogenes, DSM30053
Description: as §1

[20] = tested on: Enterococcus faecalis DSM 2570; test: microbe, parasite or virus in culture; conditions: Enterococcus faecalis, DSM2570
Description: as §1

[21] = tested on: Klebsiella pneumoniae NCTC 13442; test: microbe, parasite or virus in culture; conditions: Klebsiella pneumoniae, NCTC13442
Description: as §1

[22] = tested on: Staphylococcus epidermidis ATCC 12228; test: microbe, parasite or virus in culture; conditions: Staphylococcus epidermidis, ATCC12228
Description: as §1

[23] = tested on: Serratia marcescens DSM 17174; test: microbe, parasite or virus in culture; conditions: Serratia marcescens, DSM17174
Description: as §1

[24] = tested on: Klebsiella pneumoniae ATCC 43816; test: microbe, parasite or virus in culture; conditions: Klebsiella pneumoniae, ATCC43816
Description: as §1

[25] = tested on: Klebsiella pneumoniae ATCC BAA-1905; test: microbe, parasite or virus in culture; conditions: Klebsiella pneumoniae, ATCCBAA1905
Description: as §1

[26] = tested on: Ciprofloxacin-resistant K. pneumoniae (27); test: microbe, parasite or virus in culture; conditions: Klebsiella pneumoniae
Description: as §1

[27] = tested on: Klebsiella pneumoniae NCTC 13443; test: microbe, parasite or virus in culture; conditions: Klebsiella pneumoniae, NCTC13443
Description: as §1

[28] = tested on: Ciprofloxacin-resistant E. coli (19); test: microbe, parasite or virus in culture; conditions: Escherichia coli
Description: as §1

[29] = tested on: Pseudomonas aeruginosa DSM 1117; test: microbe, parasite or virus in culture; conditions: Pseudomonas aeruginosa, DSM1117
Description: as §1

[30] = tested on: Enterobacter cloacae (13); test: microbe, parasite or virus in culture; conditions: Enterobacter cloacae
Description: as §1

[31] = tested on: Klebsiella pneumoniae (56); test: microbe, parasite or virus in culture; conditions: Klebsiella pneumoniae
Description: as §1

Molecule: colistin [CST]
- MIC range ([1]; Unknown mechanism (1)): 32 µg/mL
- MIC range ([1]; crrB G183V substitution (1)): >128 µg/mL
- MIC range ([1]; crrB N141Y substitution (1)): >128 µg/mL
- MIC range ([1]; crrB P151L substitution (1)): >128 µg/mL
- MIC range ([1]; mcr-1 (1)): 32 µg/mL
- MIC range ([1]; mgrB IS1R between +44 and +45 (2)): 128 µg/mL
- MIC range ([1]; mgrB IS1R into promoter between −45 and −46 (3)): 32 to 128 µg/mL
- MIC range ([1]; mgrB IS5 between +74 and +75 (4)): 16 to 128 µg/mL
- MIC range ([1]; mgrB IS903B between +69 and +70 (2)): 64 µg/mL
- MIC range ([1]; mgrB ISKpn14 into promoter between −28 and −29 (2)): 64 µg/mL
- MIC range ([1]; mgrB M27K substitution (1)): 32 µg/mL
- MIC range ([1]; mgrB N42Y and K43I substitutions (1)): 32 µg/mL
- MIC range ([1]; mgrB W20R substitution (1)): 32 µg/mL
- MIC range ([1]; mgrB W47R substitution (1)): 8 µg/mL
- MIC range ([1]; mgrB premature termination (6)): 32 to 128 µg/mL
- MIC range ([1]; phoQ R16C substitution (1)): >128 µg/mL
- MIC range ([1]; pmrB L17Q substitution (1)): 32 µg/mL
- MIC range ([1]; pmrB T157P substitution (6)): 8 to 32 µg/mL
- MIC range ([2]; Unknown mechanism (2 isolates)): 16 µg/mL
- MIC range ([2]; mcr-1 (21 isolates)): 4 to 16 µg/mL
- MIC range ([2]; mcr-2 (1 isolate)): 8 µg/mL
- MIC range ([2]; mcr-3 (1 isolate)): 16 µg/mL

Molecule: CNC(C)C1CCC(N)C(OC2C(N)CC(N)C(OC3OCC(C)(O)C(NC)C3O)C2O)O1 (stereo not shown) [GEN, gentamicin]
- cytotoxicity to HRPTEpiC (in words) ([3]; concentrations up to 100 μM, 48-h incubation): not cytotoxic
- concentration inducing a significant (5-fold) increase of HSP27 level ([3]; tested up to 100 μM): 22.4 µM
- concentration inducing a significant (5-fold) increase of KIM-1 level ([3]; tested up to 100 μM): > 100 µM
- MIC [4]: 0.25 µg/mL (≈ 0.523 µM)
- MIC [5]: 8 µg/mL (≈ 16.8 µM)
- MIC [6]: 16 µg/mL (≈ 33.5 µM)
- MIC [7]: 1 µg/mL (≈ 2.09 µM)
- MIC50 [8]: > 32 µg/mL
- MIC90 [8]: > 32 µg/mL
- MIC [9]: 0.5 µg/mL (≈ 1.05 µM)
- MIC [10]: 16 µg/mL (≈ 33.5 µM)
- MIC [11]: 0.5 µg/mL (≈ 1.05 µM)
- MIC50 [12]: 1 µg/mL (≈ 2.09 µM)
- MIC90 [12]: > 32 µg/mL
- MIC [13]: 0.5 µg/mL (≈ 1.05 µM)
- MIC [14]: 4 µg/mL (≈ 8.38 µM)
- MIC [15]: 1 µg/mL (≈ 2.09 µM)
- MIC [16]: > 64 µg/mL
- MIC [17]: > 64 µg/mL
- MIC50 (Escherichia coli (101)): 1 µg/mL (≈ 2.09 µM)
- MIC90 (Escherichia coli (101)): 2 µg/mL (≈ 4.19 µM)
- MIC [18]: 8 µg/mL (≈ 16.8 µM)
- MIC [19]: 0.25 µg/mL (≈ 0.523 µM)
- MIC [20]: 16 µg/mL (≈ 33.5 µM)
- MIC [21]: 0.25 µg/mL (≈ 0.523 µM)
- MIC [22]: ≤ 0.125 µg/mL
- MIC [23]: 0.5 µg/mL (≈ 1.05 µM)
- MIC [24]: 0.25 µg/mL (≈ 0.523 µM)
- MIC [25]: 32 µg/mL (≈ 67 µM)
- MIC50 [26]: 32 µg/mL (≈ 67 µM)
- MIC90 [26]: > 32 µg/mL
- MIC [27]: > 64 µg/mL
- MIC50 [28]: 0.5 µg/mL (≈ 1.05 µM)
- MIC90 [28]: > 32 µg/mL
- MIC [29]: 1 µg/mL (≈ 2.09 µM)
- MIC50 [30]: 32 µg/mL (≈ 67 µM)
- MIC90 [30]: > 32 µg/mL
- MIC50 [31]: 1 µg/mL (≈ 2.09 µM)
- MIC90 [31]: > 32 µg/mL
